Assay results published in the NIST ThermoML archive (doi:10.1016/j.tca.2010.11.025).
± gives the expanded uncertainty stated by the source.

Assays:
[1] = refractive index (Na D-line) (dimensionless); conditions: 298.15 K; 101.33 kPa; Liquid; Standard Abbe refractometry
[2] = 298.15 K; 101.33 kPa; Liquid; Pycnometric method

refractive index [1]: 1.4878 ± 0.0007
mass density [2]: 1060.06 ± 0.96 kg/m3
SMILES: CN1CCCN(C)C1=O [1,3-dimethyl-3,4,5,6-tetrahydro-2(1H)-pyrimidinone]
